Assay results published in US20230248036A1, “FLAVOUR ADDITIVES” (MARS, INCORPORATED, priority 2012, published 2023).

Experiments:
feline umami receptor = experiment: Ligand binding of the feline umami receptor; conditions: natural ligands of the human T1R1/T1R3 receptor
From the text: As mentioned above, in addition to in silico modelling of the feline umami receptor, sequence alignments of the human, cat and dog receptors have been performed. […] Therefore, due to these significant differences, it would not be expected by the skilled person that compounds that are known to bind to the human receptor would affect the umami receptor of other animals as described herein.

[1] = system: T1R1/T1R3 receptor (umami receptor); experiment: In vitro screening for binding and activation of the umami receptor; type: biochemical; conditions: in vitro assays using a non-human umami receptor (with in silico modelling); screening in the presence of 0.2 mM IMP
Procedure: In vitro screening was carried out in order to establish which first amino acids bind and activate the umami receptor.
In vitro screening was carried out in order to establish which second amino acids bind and activate the umami receptor.

Binding to the feline umami receptor (feline umami receptor)	Ability to bind to and activate the umami receptor [1]	SMILES
does not bind		N[C@@H](CCC(=O)O)C(=O)O [glutamate]
	do not activate	C[C@@H](O)[C@H](N)C(=O)O [threonine]
	able to bind to and activate	NCC(=O)O [glycine]
	able to bind to and activate	N[C@@H](Cc1c[nH]cn1)C(=O)O [histidine]
